Assay results from ChEMBL document CHEMBL2331397, “Indoleamine 2,3-dioxygenase inhibitory activity of derivatives of marine alkaloid tsitsikammamine A” (Bioorg Med Chem Lett, 2013).
The source made the active and inactive calls. No cut-off for these calls is given here.

Columns and labels:
[1] = Cytotoxicity against mouse P815B cells assessed as cell viability at 10 uM by MTT assay relative to control; type: cell-based; details: read-out: Activity
[2] = biological target: Tryptophan 2,3-dioxygenase (Mus musculus) (UniProt P48776); experiment: Inhibition of mouse TDO overexpressed in mouse P815B cells using L-Trp as substrate assessed as kynurenine level at 10 uM by HPLC analysis relative to control; type: cell-based
Chain of Tryptophan 2,3-dioxygenase (Mus musculus) (P48776 whole entry): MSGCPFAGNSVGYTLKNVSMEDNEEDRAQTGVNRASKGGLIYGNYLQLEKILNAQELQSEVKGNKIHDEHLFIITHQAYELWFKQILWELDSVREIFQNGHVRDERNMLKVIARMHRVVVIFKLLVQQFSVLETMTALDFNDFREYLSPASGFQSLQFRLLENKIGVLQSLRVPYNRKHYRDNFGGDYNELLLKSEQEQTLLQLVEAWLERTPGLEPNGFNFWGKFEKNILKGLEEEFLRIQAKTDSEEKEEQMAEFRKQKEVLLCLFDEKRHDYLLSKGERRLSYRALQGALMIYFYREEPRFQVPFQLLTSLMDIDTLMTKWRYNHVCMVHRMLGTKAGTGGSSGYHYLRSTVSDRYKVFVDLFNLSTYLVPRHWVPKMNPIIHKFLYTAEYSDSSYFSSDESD

[3] = biological target: Indoleamine 2,3-dioxygenase 1 (Mus musculus) (UniProt P28776); experiment: Inhibition of mouse IDO1 overexpressed in mouse P815B cells using L-Trp as substrate assessed as kynurenine level at 10 uM by HPLC analysis relative to control; type: cell-based
Chain of Indoleamine 2,3-dioxygenase 1 (Mus musculus) (P28776 whole entry, looked up): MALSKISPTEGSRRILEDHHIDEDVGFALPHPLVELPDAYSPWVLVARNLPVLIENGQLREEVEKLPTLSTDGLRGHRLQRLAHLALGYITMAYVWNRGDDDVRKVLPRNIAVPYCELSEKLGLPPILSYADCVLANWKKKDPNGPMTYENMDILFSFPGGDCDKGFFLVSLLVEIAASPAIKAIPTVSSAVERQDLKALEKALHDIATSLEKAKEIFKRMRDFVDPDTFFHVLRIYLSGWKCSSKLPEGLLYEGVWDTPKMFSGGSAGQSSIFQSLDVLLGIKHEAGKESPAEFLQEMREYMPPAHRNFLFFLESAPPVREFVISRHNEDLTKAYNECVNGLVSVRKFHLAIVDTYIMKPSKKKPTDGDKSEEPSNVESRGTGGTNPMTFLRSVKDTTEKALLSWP

[4] = biological target: T1, Indoleamine 2,3-dioxygenase 1 (Homo sapiens, UniProt P14902); experiment: Inhibition of human recombinant IDO1 using L-Trp as substrate assessed as kynurenine level after 30 mins
[5] = biological target: Indoleamine 2,3-dioxygenase 1 (Mus musculus) (UniProt P28776); experiment: Inhibition of mouse IDO1 overexpressed in mouse P815B cells using L-Trp as substrate assessed as kynurenine level at 22 uM by HPLC analysis relative to control; type: cell-based
[6] = biological target: Tryptophan 2,3-dioxygenase (Mus musculus) (UniProt P48776); details: P815B, 22 uM
Description: Inhibition of mouse TDO overexpressed in mouse P815B cells using L-Trp as substrate assessed as kynurenine level at 22 uM by HPLC analysis relative to control

[7] = biological target: T1, Indoleamine 2,3-dioxygenase 1; experiment: Uncompetitive inhibition of hexahistidyl-tagged human IDO1
Target sequence in this assay (P14902 whole entry): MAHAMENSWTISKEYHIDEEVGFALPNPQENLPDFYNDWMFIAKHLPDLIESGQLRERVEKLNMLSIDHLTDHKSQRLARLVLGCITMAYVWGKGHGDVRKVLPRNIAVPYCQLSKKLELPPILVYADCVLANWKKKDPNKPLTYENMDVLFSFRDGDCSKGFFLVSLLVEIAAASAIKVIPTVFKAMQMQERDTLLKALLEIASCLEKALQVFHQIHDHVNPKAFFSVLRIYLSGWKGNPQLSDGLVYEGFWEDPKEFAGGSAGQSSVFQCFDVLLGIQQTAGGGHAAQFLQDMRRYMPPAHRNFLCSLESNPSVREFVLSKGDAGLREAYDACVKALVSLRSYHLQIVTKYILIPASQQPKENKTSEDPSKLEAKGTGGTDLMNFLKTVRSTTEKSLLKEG

Structure (SMILES)	inhibition [2]	inhibition [3]	inhibition [4]	IC50 [4]	inhibition [5]	inhibition [6]	Ki [7]	viability at 10 µM [1]
COc1ccc(-c2c[nH]c3c2C(=O)c2ccn(S(=O)(=O)c4ccc(C)cc4)c2C3=O)cc1	inactive	19.6%	< 50%	–	–	–	–	> 90%
COc1ccc(-c2c[nH]c3c2C2=NCCc4c[nH]c(c42)C3=O)cc1	inactive	19.4%	–	0.9 µM	–	–	–	> 90%
O=C1c2[nH]ccc2C(=O)c2c(-c3ccc(O)cc3)c[nH]c21	inactive	inactive	< 50%	–	–	–	–	> 90%
O=C1c2[nH]cc3c2C(=NCC3)c2[nH]cc(-c3ccc(O)cc3)c21	inactive	5.3%	–	7 µM	–	–	–	> 90%
COc1ccc(C2CNC3=C2C(=O)c2c(ccn2S(=O)(=O)c2ccc(C)cc2)C3=O)cc1 (configuration not stated)	3.2%	54.2%	–	5.6 µM	–	–	–	> 90%
COc1ccc(C2CNC3=C2C(=O)c2ccn(S(=O)(=O)c4ccc(C)cc4)c2C3=O)cc1 (configuration not stated)	2.5%	40.2%	–	1.8 µM	–	–	–	> 90%
COc1ccc(C(O)CNC2=CC(=O)c3ccn(S(=O)(=O)c4ccc(C)cc4)c3C2=O)cc1 (configuration not stated)	inactive	24.3%	–	2.5 µM	–	–	–	> 90%
COc1ccc(-c2c[nH]c3c2C(=O)c2[nH]ccc2C3=O)cc1	–	–	–	22.4 µM	–	–	–	< 50%
COc1ccc(-c2c[nH]c3c2C2=NCCc4cn(S(=O)(=O)c5ccc(C)cc5)c(c42)C3=O)cc1	3.1%	32%	–	2.2 µM	–	–	–	> 90%
COc1ccc(-c2c[nH]c3c2C(=O)c2cc[nH]c2C3=O)cc1	–	–	–	12.6 µM	–	–	–	< 50%
COc1ccc(-c2c[nH]c3c2C(=O)c2[nH]cc4c2C3=NCC4)cc1	–	–	–	7.1 µM	–	–	–	< 50%
COc1ccc(-c2c[nH]c3c2C(=O)c2c4c(cn2S(=O)(=O)c2ccc(C)cc2)CCN=C34)cc1	–	–	–	4.2 µM	–	–	–	< 50%
CO[C@@]12[C@H](COC(N)=O)C3=C(C(=O)C(C)=C(N)C3=O)N1C[C@@H]1N[C@@H]12 [MITOMYCIN]	–	–	–	–	–	–	25 µM	–

The next lines start with results.

inhibition [2]	inhibition [3]	inhibition [4]	IC50 [4]	inhibition [5]	inhibition [6]	Ki [7]	Structure (SMILES)	viability at 10 µM [1]
4.7%	40.2%	–	5.6 µM	–	–	–	COc1ccc(C2CNC3=C2C(=O)c2c(c(CCN)cn2S(=O)(=O)c2ccc(C)cc2)C3=O)cc1 (configuration not stated)	> 90%
inactive	15.6%	–	5.4 µM	–	–	–	COc1ccc(-c2c[nH]c3c2C(=O)c2c(CCN)cn(S(=O)(=O)c4ccc(C)cc4)c2C3=O)cc1	80%
inactive	26.1%	–	2.8 µM	–	–	–	COc1ccc(C2CNC3=C2C(=O)c2c(CCN)cn(S(=O)(=O)c4ccc(C)cc4)c2C3=O)cc1 (configuration not stated)	83%
1.1%	37.3%	–	8.8 µM	–	–	–	COc1ccc(C(O)CNC2=CC(=O)c3c(ccn3S(=O)(=O)c3ccc(C)cc3)C2=O)cc1 (configuration not stated)	> 90%
inactive	17.4%	–	10.1 µM	–	–	–	COc1ccc(C(O)CNC2=CC(=O)c3c(c(CCNC(=O)OC(C)(C)C)cn3S(=O)(=O)c3ccc(C)cc3)C2=O)cc1 (configuration not stated)	> 90%
inactive	31.3%	–	26.9 µM	–	–	–	COc1ccc(C(O)CNC2=CC(=O)c3c(CCNC(=O)OC(C)(C)C)cn(S(=O)(=O)c4ccc(C)cc4)c3C2=O)cc1 (configuration not stated)	> 90%
–	–	–	–	14.5%	inactive	–	Cn1cc(C[C@H](N)C(=O)O)c2ccccc21 [(L)-1-METHYLTRYPTOPHAN]	> 90%
inactive	26%	–	11.9 µM	–	–	–	COc1ccc(-c2c[nH]c3c2C(=O)c2c(c(CCN)cn2S(=O)(=O)c2ccc(C)cc2)C3=O)cc1	> 90%
